# Measurements as given in patent publication US20260217863A1, “ANTIBODY OR PEPTIDE BINDING SPECIFICALLY TO RNASE A, IMMUNOASSAY DEVICE AND METHOD FOR DETECTING RNASE A, AND METHOD FOR COLLECTING RNASE A” (UIF (University Industry Foundation), Yonsei University, priority 2022, published 2026).
# Where no end group is shown, it is not given here.
# Target: T1, RNase A (Bos taurus, UniProt P61823)
# T1 sequence (P61823 27-150): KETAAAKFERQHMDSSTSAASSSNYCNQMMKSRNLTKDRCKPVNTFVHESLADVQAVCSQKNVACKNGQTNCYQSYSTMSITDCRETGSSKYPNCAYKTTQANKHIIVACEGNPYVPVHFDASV
# Experiment: RNase activity test kit, modified Taq-man RNA probe analysis (ab273299)
# Type: biochemical
# Parameters: purchased Abcam ab273299
# Conditions: for inhibition at 1 µM: inhibitor 1 μM, after 60 minutes, positive control (no inhibitor) = 100%, read-out: relative inhibition level / reduction of RNase A activity; for RNase A activity reduced by: summary paragraph, peptide 1 μM, versus non-inhibitory condition (100%); for IC50: synthetic peptides, RNA probe kit, linear regression
# Protocol: The activity of RNase A, which degrades RNA, was evaluated using specially designed RNA probes. This RNase A analysis was performed using a commercial RNase activity test kit based on a modified Taq-man probe analysis (ab273299) from Abcam (Cambridge, UK). To compare inhibitory activity, three synthetic peptides (peptide-1, peptide-2, peptide-3) and three expressed Fv-antibodies (Fv-1, Fv-2, and Fv-3) were compared using two types of commercially available RNase inhibitors from Biofact™ (Daejeon, South Korea) and two types of RNaseOUT™ from Thermofisher (USA). The probes for the RNase inhibition analysis contained RNA probes with fluorescent dyes and quenching materials at each end of the RNA sequence. […] To estimate the RNase A inhibitory activity by the three synthesized peptides, each peptide was treated at a concentration of 1 μM using the analysis kit, and RNase activity was measured. The positive control was prepared to have an RNase reaction without an inhibitor, and the negative control was prepared to have an RNase reaction without the RNA probe. […] The RNase A inhibitory activity of the three synthesized peptides was analyzed after treating each peptide at a concentration range of 100 μM to 1 μM in the assay kit. […] The RNase A inhibitory activity of the three expressed Fv-antibodies was analyzed after treating each peptide at a concentration range of 100 μM to 1 μM in the analysis kit.
# The activity of RNase A, which degrades RNA, was evaluated using specially designed RNA probes. This RNase A analysis was performed using a commercial RNase activity test kit based on a modified Taq-man probe analysis (ab273299) from Abcam (Cambridge, UK). For the comparison of inhibitory activity, three synthetic peptides (Peptide-1, Peptide-2, Peptide-3) and three expressed Fv-antibodies (Fv-1, Fv-2, and Fv-3) were compared using two types of commercially available RNase inhibitors from Biofact™ (Daejeon, South Korea) and two types of RNaseOUT™ from Thermofisher (USA). The probes for the RNase inhibition analysis contain RNA probes with fluorescent dyes and fluorescent quenchers at each end of the RNA nucleotide sequence.
# To estimate the RNase A inhibitory activity of the three synthesized peptides, each peptide was treated at a concentration of 1 μM using an assay kit, and the RNase activity was evaluated. The positive control was prepared to have an RNase reaction without the inhibitor, while the negative control was prepared to have an RNase reaction without the RNA probe.
# The RNase A inhibitory activity of the three synthesized peptides was analyzed after treating each peptide at a concentration range of 100 μM to 1 μM with the RNase A from the assay kit.
inhibition at 1 µM,RNase A activity reduced by,IC50,Sequence
54.4%,54.4%,8.1 µM,CGPDSDVMTDF [Peptide-1]
50.3%,50.3%,0.4 µM,DGTAKKSRKDD [Peptide-3]

Sequence,inhibition at 1 µM,RNase A activity reduced by,IC50
YGPVGRVKRDD [Peptide-2],53.2%,53.2%,3.6 µM
